In the test the test system is mute-2 seedlings expressing MUTEpro::MUTE-GFP, MUTEpro::MUTEE162A_E163A-GFP or MUTEpro::MUTER133A_R134A-GFP. Description: Stomidazolone resistance of mute-2 seedlings expressing engineered MUTE-GFP. Type of test: in vivo, Arabidopsis. The method, then:
Arabidopsis accession Columbia (Col-0) was used as wild-type. […] Their genotype and transcript reduction were confirmed. The presence of transgenes/mutant alleles were confirmed by genotyping. For liquid culture with Stomidazolone (AYSJ929, compound 3), the analogs (AYSJ1059 (compound 5) and AYSJ1061 (compound 6)), degraded compound lzx103 (compound 4), and SIM3* (compound 7), all compounds were dissolved in dimethyl sulfoxide (DMSO, Molecular biology grade, Fujifilm Wako, Japan 046-21981), Col-0 seeds were sown in 96-well plates (TL5003; True Line) containing 95 μL of 1/2 MS media containing 0.5% sucrose with rotary shaking at 140 rpm under continuous light at 22 °C. Five μL of compounds were dissolved in DMSO at 10 mM and diluted with liquid 1/2 MS media to 1 mM and added on 1-day-old seedlings (final concentration, 50 μM). Seedlings were incubated for 8 days, and at day 9 seedling abaxial cotyledons were observed through confocal microscopy. For liquid culture of scrm-D_S343 and scrm-D_S423, 1/2 MS liquid media without sucrose was used. For the solid culture, 0, 20, 50 or 100 μM Stomidazolone were solidified with low-melting agarose (5805S, PrimeGelTM Agarose LMT 1-20 K, TAKARA Bio). Briefly, 1/2 MS salt, 0.5% sucrose, and 0.8% low melting agarose were mixed in water and autoclaved. After cooling the medium at around 30 °C, Stomidazolone (500x, dissolved in DMSO) was added and poured into 90 mm petri dishes (Asnol Petri Dish JP φ90 x 15 mm, 3-1491-01, AS ONE). Col-0 seeds were sown on Stomidazolone-containing 1/2 MS agarose media and grown under continuous light for 9 days.
The following constructs for transgenic plants were generated in this study: MUTEpro::MUTE-GFP (pAH11), MUTEpro::MUTEE162AE163A-GFP (pHS133), MUTEpro::MUTER133AR134A-GFP (pHS134). The original MUTEpro::MUTE-GFP construct (pLJP155) was generated via a different cloning strategy with different antibiotics selection. We therefore re-generated the wild-type Three-way Gateway version of MUTEpro::MUTE-GFP (pAH11) as a control. MUTE genomic coding construct without stop codon (pAR205) and MUTE promoter construct (pAR202) were subjected to the Gateway reaction with R4pGWB504[56]. The wild-type MUTE-GFP lines with the identical R4pGWB504 backbone enable a proper comparison of phenotypic complementation. The mutant versions of MUTE constructs were generated in the same way after site-directed mutagenesis using Q5 Site-directed mutagenesis kit (NEB) and subjected to the Three-Way Gateway reaction after sequence confirmation. The constructs were then transformed into the Agrobacterium strain GV3101 and floral dipped into mute-2/+ plants. To construct CaMV35S::H2B-mScarlet-I3/pPZP211 (DKv1400), 35S promoter (35Sp::RFP-CenH3 with DKp665-DKp1254)[57], H2B-(SGGGG)2 linker (from DKv1200[58] with DKp2412-DKp2599), mScarlet-I3 (from codon optimized synthetic DNA for A. thaliana), Nos terminator (from DKv1200 with DKp1251-DKp2598) were amplified using KOD one polymerase (TOYOBO). The PCR products were assembled into BamHI/EcoRI-digested pPZP211[59] using the NEBuilder HiFi DNA Assembly (NEB). For detailed lists of oligo DNA and plasmid information, see Tables S5 and S6, respectively.
For quantitative analysis of the abaxial leaf epidermis, confocal images were taken on the days after germination as indicated in the Figure legends. Preparation of images was done as described previously[32],[70]. For counting epidermal cell types, stomatal density, stomatal precursor cells (meristemoids), total stomata-lineage cells (stomata and meristemoids) were calculated by counting cell types in an area of 0.4 mm^2 (0.63 mm × 0.63 mm) and plotted as per mm^2. A series of Z-stack confocal images was obtained to obtain images covering the epidermis and capturing GFP/YFP signal from the reporter lines. The area and the number of epidermal cells were quantified by using FIJI-ImageJ. Statistical analyses were performed using R ver. 4.0.2. […]

[1] abbreviates: line AH11 Ln5, 20 μM Stomidazolone, cotyledon abaxial epidermis, individual seedlings.
The mark [2] stands for this setting: line HS133 Ln26, 20 μM Stomidazolone, cotyledon abaxial epidermis, individual seedlings.
[3] abbreviates: line HS134 Ln26, 20 μM Stomidazolone, cotyledon abaxial epidermis, individual seedlings.
Where [4] appears, read: transgenic line AH11 Ln25, cotyledon abaxial epidermis, 20 μM Stomidazolone, individual seedlings.
Setting [5] is: transgenic line HS133 Ln19, cotyledon abaxial epidermis, 20 μM Stomidazolone, individual seedlings.
[6] abbreviates: transgenic line HS134 Ln23, cotyledon abaxial epidermis, 20 μM Stomidazolone, individual seedlings.

Several values for one entry are separate records, joined by “and”; a condition that tells them apart may be missing. Equal values may be shown once.

Regarding `O=C1C(c2ccccc2)=NC(NS(=O)(=O)c2ccccc2)(c2ccccc2)N1S(=O)(=O)c1ccccc1` (centres unmarked) [Stomidazolone], the “effect on numbers of stomata and meristemoids (in words)” value (20 μM, eight days, MUTEpro::MUTEE162A_E163A-GFP and MUTEpro::MUTER133A_R134A-GFP in mute-2) is “did not significantly affect the numbers of stomata and meristemoids”. Further, for the setting “20 μM, eight days, control MUTEpro::MUTE-GFP mute-2”, the “effect on number of stomata (in words)” value is recorded as “significantly reduced the number of stomata”. Under setting [1], the Meristemoid density was 0 per mm2 and 2 per mm2 and 5 per mm2; the “Stomata Total density” value is 165 per mm2 and 160 per mm2 and 190 per mm2 and 197 per mm2 and 136 per mm2 and 163 per mm2 and 180 per mm2; the “total (stomata and meristemoids) density” value is 165 per mm2 and 163 per mm2 and 192 per mm2 and 199 per mm2 and 141 per mm2 and 182 per mm2. Under setting [2], the Meristemoid density was 2 per mm2 and 0 per mm2 and 5 per mm2; the “Stomata Total density” value is 279 per mm2 and 170 per mm2 and 177 per mm2 and 226 per mm2 and 425 per mm2 and 199 per mm2; the “total (stomata and meristemoids) density” value was 282 per mm2 and 170 per mm2 and 180 per mm2 and 177 per mm2 and 226 per mm2 and 425 per mm2 and 182 per mm2 and 202 per mm2. In addition, under setting [3], the Meristemoid density was 0 per mm2 and 7 per mm2 and 29 per mm2 and 5 per mm2; the Stomata density is 279 per mm2 and 309 per mm2 and 190 per mm2 and 194 per mm2 and 272 per mm2 and 294 per mm2 and 367 per mm2 and 304 per mm2; the “total (stomata and meristemoids) density” value is 279 per mm2 and 316 per mm2 and 197 per mm2 and 224 per mm2 and 272 per mm2 and 294 per mm2 and 367 per mm2 and 309 per mm2. In addition, under setting [4], the Meristemoid density is 0 per mm2 and 5 per mm2 and 2 per mm2; the stomatal density is 197 per mm2 and 216 per mm2 and 250 per mm2 and 287 per mm2 and 219 per mm2 and 182 per mm2 and 226 per mm2; the “total (stomata and meristemoids) density” value is 197 per mm2 and 221 per mm2 and 253 per mm2 and 287 per mm2 and 219 per mm2 and 216 per mm2 and 182 per mm2 and 226 per mm2. Besides, under setting [5], the Meristemoid density is 0 per mm2 and 5 per mm2 and 2 per mm2 and 17 per mm2; the stomatal density is 267 per mm2 and 442 per mm2 and 316 per mm2 and 250 per mm2 and 209 per mm2 and 224 per mm2 and 437 per mm2 and 294 per mm2; the “total (stomata and meristemoids) density” value is 267 per mm2 and 442 per mm2 and 321 per mm2 and 255 per mm2 and 209 per mm2 and 228 per mm2 and 440 per mm2 and 311 per mm2. For the same molecule, under setting [6], the Meristemoid density was 0 per mm2 and 5 per mm2; the “stomatal density (Stomata Total)” value was 345 per mm2 and 221 per mm2 and 180 per mm2 and 267 per mm2 and 479 per mm2 and 316 per mm2 and 207 per mm2 and 199 per mm2; the “total (stomata and meristemoids) density” value was 345 per mm2 and 221 per mm2 and 185 per mm2 and 267 per mm2 and 479 per mm2 and 316 per mm2 and 211 per mm2 and 199 per mm2.

These data come from PMC11500415, “Chemical inhibition of stomatal differentiation by perturbation of the master-regulatory bHLH heterodimer via an ACT-Like domain” (Nature Communications, 2024).
